In US20090304825A1, “ESTROGENIC EXTRACTS FOR USE IN TREATING VAGINAL AND VULVAR ATROPHY” (Bionovo, Inc., priority 2008, published 2009):

Columns and labels:
[1] = test system: either receptor (ERα, ERβ); assay: Antagonistic effect on estrogen receptors (method not described); type: cell-based
[2] = molecular target: estrogen receptor beta (ERβ) (Homo sapiens, UniProt Q92731); assay: Estrogen receptor subtype transcriptional activation (studies, method not described); type: cell-based; conditions: "Studies have shown"
Sequence of estrogen receptor beta (ERβ) (Q92731 whole entry): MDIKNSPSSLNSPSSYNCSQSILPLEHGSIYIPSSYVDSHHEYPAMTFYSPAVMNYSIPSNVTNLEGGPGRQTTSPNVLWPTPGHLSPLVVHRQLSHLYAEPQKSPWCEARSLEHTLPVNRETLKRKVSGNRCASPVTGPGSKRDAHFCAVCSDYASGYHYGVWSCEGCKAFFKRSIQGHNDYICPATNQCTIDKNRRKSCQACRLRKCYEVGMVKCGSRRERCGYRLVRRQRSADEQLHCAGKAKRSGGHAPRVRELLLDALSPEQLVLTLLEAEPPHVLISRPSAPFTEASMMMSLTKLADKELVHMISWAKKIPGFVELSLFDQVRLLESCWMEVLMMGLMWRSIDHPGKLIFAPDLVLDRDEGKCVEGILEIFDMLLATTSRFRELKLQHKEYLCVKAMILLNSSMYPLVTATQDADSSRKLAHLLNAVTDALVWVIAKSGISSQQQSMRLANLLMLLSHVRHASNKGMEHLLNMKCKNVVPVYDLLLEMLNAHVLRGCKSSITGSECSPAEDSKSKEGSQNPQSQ

ERβ [3] = molecular target: T1, ERβ (Homo sapiens, UniProt Q92731); conditions: in the presence of ERβ
T1 sequence (Q92731 whole entry): as above

TNF-RE tkLuc = assay: Antiestrogen effect on TNF-RE tkLuc; type: cell-based; conditions: for effect on the repression induced by E2: TNF-RE tkLuc; for activation of TNF-RE tkLuc: antiestrogens, in contrast to E2
Text: […]. […] […].

[4] = test system: both estrogen receptor subtypes; assay: Binding to estrogen receptor subtypes (method not described); conditions: "Studies have shown"
ERβ [5] = molecular target: T1, ERβ; assay: ERE-tk-Luc activation in U2OS osteosarcoma cells co-transfected with ERβ; type: cell-based; parameters: expressed in transfected cells; host or cells: U2OS osteosarcoma cells
Text: FIGS. 1A-1C. […] (Amarathaceae).

[6] = several small randomized trials; cited from earlier work
oopherectomized mice = assay: Intra-vaginal administration to oopherectomized mice, vaginal and endometrial histology; type: in vivo
Text: The glands form back to back without intervening stroma. […] In one area, the glands arise in what appears to be a polyp with a broad stalk and thick fibrovascular core.

Compound: COc1ccc(-c2coc3cc(O)ccc3c2=O)cc1O [Calycosin]
- antagonistic effect on either receptor [1]: does not have an antagonistic effect on either receptor
- ER subtype transcriptional activation [2]: ERβ selective transcriptional activation

Compound: C[C@]12CC[C@@H]3c4ccc(O)cc4CC[C@H]3[C@@H]1CC[C@@H]2O [E2, estradiol]
- repression of TNF-α activation of TNF-RE tkLuc (ERβ [3]): 60-80%

Compound: C[C@]12CC[C@@H]3c4ccc(O)cc4C[C@@H](CCCCCCCCC[S+]([O-])CCCC(F)(F)C(F)(F)F)[C@H]3[C@@H]1CC[C@@H]2O (some centres unmarked) [ICI 182, 780]
- effect on the repression induced by E2 (TNF-RE tkLuc): abolished the repression induced by E2
- activation of TNF-RE tkLuc (TNF-RE tkLuc): 2 fold

Compound: C=CC(/C=C\c1ccc(O)cc1)c1ccc(O)cc1 (centres unmarked) [Nyasol]
- antagonistic effect on either receptor [1]: does not have an antagonistic effect on either receptor
- binding affinity to estrogen receptor subtypes [4]: binds with equal affinity to both estrogen receptor subtypes
- ER subtype transcriptional activation [2]: ERβ transcriptional activation only
- activation of ERE-tk-Luc relative to estradiol (E2) (ERβ [5]; compared with 10 nM E2): activation equivalent to 10 nM estradiol
- activation in the presence of ER antagonists (ERβ [5]; raloxifene (Ral), tamoxifen (Tam), b208 also ICI 182, 780): blocked the activation

Compound: COc1c(O)cc2c(=O)c3c(oc2c1O)oc1c(O)cccc13 [TCIF, tetracyclic isoflavone]
- antagonistic effect on either receptor [1]: does not have an antagonistic effect on either receptor
- ER subtype transcriptional activation [2]: estrogen receptor beta (ERβ) selective transcriptional activation

Compound: Oc1ccc2c(c1)CC[C@H](c1ccccc1)[C@@H]2c1ccc(OCCN2CCCC2)cc1 [lasofoxifene]
- vaginal maturation indices and vaginal pH relative to placebo [6]: improvements in vaginal maturation indices and vaginal pH

Compound: O=C(c1ccc(OCCN2CCCCC2)cc1)c1c(-c2ccc(O)cc2)sc2cc(O)ccc12 [raloxifene]
- antagonist effect on the activation by herbal extracts and active ingredients in VG101 (ERβ [5]; ERE-tk-Luc): blocked the activation
- effect on the repression induced by E2 (TNF-RE tkLuc): abolished the repression induced by E2
- activation of TNF-RE tkLuc (TNF-RE tkLuc): 2 fold

Compound: CC/C(=C(\c1ccccc1)c1ccc(OCCN(C)C)cc1)c1ccccc1 [tamoxifen]
- effect on the repression induced by E2 (TNF-RE tkLuc): abolished the repression induced by E2
- activation of TNF-RE tkLuc (TNF-RE tkLuc): 2 fold

Compound: estrogen
- endometrium histology (oopherectomized mice; mouse model, compared to controls): endomyometrium (the equivalent of complex atypical hyperplasia in women, worrisome for in situ carcinoma)
- vaginal epithelium histology (oopherectomized mice; oopherectomized mice, intra-vaginal, VG101 0.5 mg/day for 10 days): squamous epithelium with hyperkeratosis
